Data reported in patent US20110257116A1, “BIOSURFACTANT-CONTAINING SKIN CARE COSMETIC AND SKIN ROUGHNESS-IMPROVING AGENT” (National Institute Of Advanced Industrial Science And …, priority 2005, published 2011).
Entries after “also recorded” stand apart in the source; their conditions may differ.

What was measured:
[1] = test system: three-dimensional skin model (Test Skin LSE-002 or 003; Toyobo) treated with SDS; test: Skin roughness model: three-dimensional skin model defatted with SDS, cell viability by MTT (absorbance of formazan); type: cell-based; conditions: for cell viability (absorbance of formazan): dissolved in olive oil, added on Test Skin treated with 1% SDS, left overnight, MTT kit
[2] = Dispersion stability test in water (absorbance at 650 nm); type: physicochemical; conditions: FIG. 6; for change in turbidity of the water suspension: after 6 hours
Protocol: MEL-B or MEL-C at a concentration of 10 mg/mL was added to water, stirred and suspended. Its absorbance at 650 nm was measured.

Substance | cell viability (absorbance of formazan) [1] | dispersion stability ([2]; 10 mg/mL in water, stirred and suspended, absorbance at 650 nm) | change in turbidity of the water suspension [2] | skin roughness improvement compared with MEL-A ([1]; FIG. 4 legend, three-dimensional skin model treated with SDS, viability)
mannosylerythritol lipid A [MEL-A] | increased in a MEL-A-concentration-dependent manner |  |  | 
mannosylerythritol lipid C [MEL-C] | increased in a MEL-C-concentration-dependent manner | particularly excellent in dispersion stability; also recorded: more excellent than MEL-A in water dispersion stability | little observable change in turbidity | 
mannosylerythritol lipid B [MEL-B] | increased in a MEL-B-concentration-dependent manner |  | little observable change in turbidity | increased skin roughness improvement over MEL-A
